From patent publication US5322848A, “N-acyl-substituted azacyclic compounds, processes for their preparation, and their use as pharmaceuticals” (Dr. Lo Zembeletti S.p.A., priority 1989, dated 1994)
Where a name gives a salt, the structure may show the parent alone.

Experiments:
Type in all cases: in vivo, Male Charles River mice (Swiss Strain)
[1] = test system: mice (tail-flick); experiment: Tail-flick test in mice; conditions: 30 min pretreatment, data referred to the free base; for ED50: Mus musculus, sc, 0.5 h, subcutaneous, read-out: ANALGESIA MOUSE TAIL-FLICK ED50; for ANALGESIA MOUSE TAIL-FLICK, % at 10 mg: 10 mg (mg/kg sc)
Method: (§1) B) Tail-flick test in mice
(§2) The methodology employed is based on that described by D'Amour and Smith, J. Pharmacol. Exp. Ther. 72, 74/1941.
(§3) Males Charles River mice (Swiss Strain), 22-34 g body weight were used. Animals were allowed food and water ad libitum and were randomized into groups of 10 prior to experimentation.
Test compounds were dissolved in either distilled water or distilled water plug 0. 1M AMS and administered by the subcutaneous route in a final volume of 10 ml/Kg. Control animals received 10 ml/kg of the appropriate vehicle alone. Following a pretreatment period of 30 min., the mice were again placed under the heat source and the reaction tine re-determined.
(§4) Percentage quantal protection was determined as the number of mice in which the reaction time was doubled compared to pretreatment values, expressed as a percentage of the total number of mice in the group.

[2] = test system: mice (p-phenylquinone-induced abdominal writhing); experiment: P-phenylquinone-induced abdominal writhing test in mice; conditions: Mus musculus, sc, 20 min; subcutaneous; 20 min pretreatment; data referred to the free base; read-out: ANALGESIA MOUSE WRITHING ED50
Method: A) P-phenylquinone-induced abdominal writhing rest in mice
The methodology employed is based on that described by Sigmund et al, Proc. Soc. Exptl. Biol. 95, 729/1957, modified by Milne and Twomey, Agents and Actions, 10, 31/1980.
Male Charles River mice (Swiss Strain), 25-36 g body weight, were used. Animals were allowed food and water ad libitum and were randomized into groups of 10 prior to experimentation. Test compounds were dissolved in either distilled water or distilled water plus 0.1 M AMS, and administered by the subcutaneous route in a final volume of 10 ml/Kg. Control animals received 10 ml/Kg of the appropriate vehicle alone. Following a pretreatment period of 20 min., mice were injected intraperitoneally with p-phenylquinone, 2 mg/Kg at 37° C. in a final volume of […]. […] During this period the number of abdominal writhing responses per animal were recorded where writhing consists of an intermittent contraction of the abdomen associated with hind leg extension.
The degree of antinociceptive protection afforded by the test co mound was determined as the mean number of writhing responses observed in the treated group (T) expressed as a percentage of the mean number of writhing response in the control group (C) according to the following formula:
[1-(T/C]×100%=% graded protection

[3] = test system: mice (tail-flick); experiment: Duration of action, mouse tail-flick graded, % activity at MTFQ ED50; conditions: sc, data referred to the free base
Method: as §1, §2, §3
Test compounds were dissolved in either distilled water or distilled water plug 0. 1M AMS and administered by the subcutaneous route in a final volume of 10 ml/Kg. Control animals received 10 ml/kg of the appropriate vehicle alone. […]
as §4

| SMILES | ED50 [1] | ED50 [2] | DURATION OF ACTION M. TAIL-FLICK GRADED % ACTIVITY AT MTFQ ED50, 30' [3] | DURATION OF ACTION M. TAIL-FLICK GRADED % ACTIVITY AT MTFQ ED50, 90' [3] | ANALGESIA MOUSE TAIL-FLICK, % at 10 mg [1] |
| --- | --- | --- | --- | --- | --- |
| CC1(C)CCCN(C(=O)Cc2ccc(C(F)(F)F)cc2)C1CN1CCC(O)C1 (stereo not drawn) [Example 5, 1-(4-trifluoromethylphenyl)acetyl-2-(3-hydroxypyrrolidin-1-yl) methyl-3,3-dimethyl piperidine hydrochloride] | 0.225 mg/kg | 0.089 mg/kg | 78% | 82% | – |
| CC1(C)CN(C(=O)Cc2ccc(Cl)c(Cl)c2)C(CN2CCC(O)C2)c2ccccc21 (stereo not drawn) [Example 14, 1-(3-hydroxypyrrolidin-1-yl)methyl-2-(3,4-dichlorophenyl)acetyl 4,4-dimethyl-1,2,3,4-tetrahydroisoquinoline hydrochloride] | 0.898 mg/kg | 0.087 mg/kg | 93% | 85% | – |
| CC1(C)CCCN(C(=O)Cc2ccc(Cl)c(Cl)c2)C1CN1CCC(O)C1 (stereo not drawn) [Example 6, 1-(3,4-dichlorophenyl)acetyl-2-(3-hydroxypyrrolidin-1-yl)methyl-3,3-dimethyl piperidine hydrochloride] | 0.233 mg/kg | 0.081 mg/kg | 87% | 100% | – |
| C[C@]1(O)CCN(C[C@H]2CCCCN2C(=O)Cc2ccc(Cl)c(Cl)c2)C1.Cl [Example 9, (R,S)-1-(3,4-dichlorophenyl)acetyl-2-(3-hydroxy-3-methylpyrrolidin-1-yl) methyl piperidine hydrochloride] | – | – | – | – | 40% |
| O=C1CCCc2cc(CC(=O)N3CCCCC3CN3CCC(O)C3)ccc21 (stereo not drawn) [Example 17, 1-[1-oxo-3,4-dihydro-(2H)-napht-6-yl]acetyl-2-(3-hydroxy-pyrrolidin-1-yl)methyl piperidine] | 3.24 mg/kg | 1.78 mg/kg | 78% | 80% | – |
| CC1(C)CCN(C(=O)Cc2ccc(Cl)c(Cl)c2)C(CN2CCC(O)C2)C1 (stereo not drawn) [Example 7, 1-(3,4-dichlorophenyl)acetyl-2-(3-hydroxypyrrolidin-1-yl)methyl-4,4-dimethyl piperidine hydrochloride hemihydrate] | 0.25 mg/kg | 0.037 mg/kg | 84% | 74% | – |
| CC1(C)CCN(C(=O)Cc2ccc3c(c2)CCCC3=O)C(CN2CCC(F)C2)C1 (stereo not drawn) [Example 25, 1-[1-oxo-3,4-dihydro-(2H)-napht-6-yl]acetyl-2-(3-fluoropyrrolidin-1-yl)methyl-4,4-dimethyl piperidine hydrochloride] | 0.47 mg/kg | 0.005 mg/kg | 74% | 56% | – |
| CC1(C)CCCN(C(=O)Cc2ccc(C(F)(F)F)cc2)C1CN1CCC(F)C1 (stereo not drawn) [Example 23, 1-(4-trifluoromethylphenyl)acetyl-2-(3-fluoropyrrolidin-1-yl) methyl-3,3-dimethylpiperidine hydrochloride] | 0.005 mg/kg | 0.003 mg/kg | 90% | 86% | – |
| COC1CCN(CC2CCCCN2C(=O)Cc2ccc(C(F)(F)F)cc2)C1 (stereo not drawn) [Example 20, 1-(4-trifluoromethylphenyl)acetyl-2-(3-methoxypyrrolidin-1-yl) methyl piperidine] | – | – | – | – | 80% |
| COC1CCN(CC2CCCCN2C(=O)Cc2ccc(Cl)c(Cl)c2)C1 (stereo not drawn) [Example 19, 1-(3,4-dichlorophenyl)acetyl-2-(3-methoxypyrrolidin-1-yl)methyl piperidine] | – | – | – | – | 80% |
| O=C(Cc1ccc(Cl)c(Cl)c1)N1CCCCC1CN1CCC(F)C1 (stereo not drawn) [Example 18, 1-(3,4-dichlorophenyl)acetyl-2-(3-fluoropyrrolidin-1-yl)methyl piperidine hydrochloride] | 0.021 mg/kg | 0.002 mg/kg | 80% | 34% | – |
| O=C1CCCc2cc(CC(=O)N3CCCCC3CN3CCC(F)C3)ccc21 (stereo not drawn) [Example 22, 1-[1-oxo-3,4-dihydro-(2H)-napht-6-yl]acetyl-2-(3-fluoropyrrolidin-1-yl)methyl piperidine hydrochloride] | 0.065 mg/kg | 0.005 mg/kg | 75% | 40% | – |
